Data on ten molecules can be found in ChEMBL document CHEMBL1154225, “Design and synthesis of bile acid-based amino sterols as antimicrobial agents” (Bioorg Med Chem Lett, 2009).

One may read the MIC as the lowest concentration that inhibits growth of the organism. A higher MIC goes with a need for much substance. The term IC50 denotes the concentration needed to halve the response being measured.

Converted amounts (≈) assume the structure as drawn.

Common to all, as to format: functional, organism-based
The test system of one assay is Pseudomonas aeruginosa. As to the kind of experiment: Antibacterial activity against Pseudomonas aeruginosa ATCC BAA-427 after 24 hrs by NCCLS method.
The subject of the next assay is Staphylococcus aureus. Description: Antibacterial activity against Staphylococcus aureus ATCC 25923 after 24 hrs by NCCLS method.
The next assay relates to Klebsiella pneumoniae. Description: Antibacterial activity against Klebsiella pneumoniae ATCC 27736 after 24 hrs by NCCLS method.
Another assay deals with Candida albicans. Description: Antifungal activity against Candida albicans after 48 hrs by microbroth dilution technique.
The test system of a further assay is Cryptococcus neoformans. Description: Antifungal activity against Cryptococcus neoformans after 72 hrs by microbroth dilution technique. In general terms: In broth dilution the organism is exposed to a series of concentrations in liquid medium.
For a further assay, the system named is Sporothrix schenckii. Description: Antifungal activity against Sporothrix schenckii after 72 hrs by microbroth dilution technique.
Assay [1] has as its system Trichophyton mentagrophytes. As to the kind of experiment: Antifungal activity against Trichophyton mentagrophytes after 96 hrs by microbroth dilution technique.
The next assay concerns Aspergillus fumigatus. As to the kind of experiment: Antifungal activity against Aspergillus fumigatus AF-27 after 72 hrs by microbroth dilution technique. The conditions noted are these: AF-27, 72 h.
The next assay has as its system Candida parapsilosis. Description: Antifungal activity against Candida parapsilosis ATCC 22019 after 48 hrs by microbroth dilution technique. The conditions noted are these: Lodderomyces parapsilosis, ATCC 22019, 48 h.
The test system of a further assay is Escherichia coli. Description: Antibacterial activity against Escherichia coli ATCC 9637 after 24 hrs by NCCLS method.
Setting [2] is: Pseudomonas aeruginosa, ATCC BAA-427, 24 h.
Setting [3] is: Pseudomonas aeruginosa, ATCC BAA-427, 24 h, read-out: IC50.
[4] abbreviates: Klebsiella pneumoniae, ATCC 27736, 24 h.
Where [5] appears, read: Klebsiella pneumoniae, ATCC 27736, 24 h, read-out: IC50.
Setting [6] is: Escherichia coli, ATCC 9637, 24 h.
Setting [7] is: Escherichia coli, ATCC 9637, 24 h, read-out: IC50.

Take `COC(=O)CC[C@@H](C)[C@H]1CC[C@H]2[C@@H]3[C@H](O)C[C@@H]4C[C@](O)(CN)CC[C@]4(C)[C@H]3C[C@H](O)[C@]12C`: the minimal inhibitory concentration (MIC) was above 50 mg/L with Pseudomonas aeruginosa (setting [2]); 25 mg/L (≈ 55.4 µM) with Staphylococcus aureus (ATCC 25923, 24 h); 25 mg/L (≈ 55.4 µM) with Klebsiella pneumoniae (setting [4]); 50 mg/L (≈ 111 µM) against Candida albicans; above 50 mg/L with Cryptococcus neoformans; 50 mg/L (≈ 111 µM) against Sporothrix schenckii. Moreover, the minimal inhibitory concentration (MIC) in [1] is 25 mg/L (≈ 55.4 µM); in the assay on Aspergillus fumigatus, above 50 mg/L; in the assay with Candida parapsilosis it was above 50 mg/L; in the assay on Escherichia coli (setting [6]) it was above 50 mg/L. In addition, the IC50 is above 50 mg/L with Pseudomonas aeruginosa (setting [3]); 18.4 mg/L (≈ 40.8 µM) in the assay with Staphylococcus aureus (ATCC 25923, 24 h); 18.4 mg/L (≈ 40.8 µM) in the assay with Klebsiella pneumoniae (setting [5]); above 50 mg/L in the assay on Candida albicans; above 50 mg/L in the assay with Cryptococcus neoformans; 50 mg/L (≈ 111 µM) with Sporothrix schenckii. The IC50 in assay [1] was 21.4 mg/L (≈ 47.4 µM); with Aspergillus fumigatus it was above 50 mg/L; with Candida parapsilosis, above 50 mg/L; with Escherichia coli (setting [7]), above 50 mg/L.

`COC(=O)CC[C@@H](C)[C@H]1CC[C@H]2[C@@H]3CC[C@@H]4C[C@](O)(CN)CC[C@]4(C)[C@H]3C[C@H](O)[C@]12C`: the minimum inhibitory concentration (MIC) was above 50 mg/L against Pseudomonas aeruginosa (setting [2]); 25 mg/L (≈ 57.4 µM) with Staphylococcus aureus (ATCC 25923, 24 h); 50 mg/L (≈ 115 µM) in the assay on Klebsiella pneumoniae (setting [4]); 50 mg/L (≈ 115 µM) against Candida albicans; 50 mg/L (≈ 115 µM) in the assay with Cryptococcus neoformans; 25 mg/L (≈ 57.4 µM) against Sporothrix schenckii. Further, the MIC was 25 mg/L (≈ 57.4 µM) in assay [1], 50 mg/L (≈ 115 µM) with Aspergillus fumigatus, above 50 mg/L against Candida parapsilosis and above 50 mg/L in the assay with Escherichia coli (setting [6]). In addition, the half-maximal inhibitory concentration (IC50) in the assay on Pseudomonas aeruginosa (setting [3]) was above 50 mg/L; in the assay with Staphylococcus aureus (ATCC 25923, 24 h), 14.6 mg/L (≈ 33.4 µM); with Klebsiella pneumoniae, “Not Active”; in the assay on Candida albicans, 50 mg/L (≈ 115 µM); in the assay with Cryptococcus neoformans, 50 mg/L (≈ 115 µM); with Sporothrix schenckii it was 12.6 mg/L (≈ 29 µM). Also, the concentration for half-maximal inhibition (IC50) in [1] is 24.9 mg/L (≈ 57.1 µM); in the assay on Aspergillus fumigatus it was 50 mg/L (≈ 115 µM); in the assay with Candida parapsilosis it was above 50 mg/L; in the assay on Escherichia coli (setting [7]) it was above 50 mg/L.

Take `OC(Cn1cncn1)(Cn1cncn1)c1ccc(F)cc1F` [FLUCONAZOLE]: the minimum inhibitory concentration (MIC) with Candida albicans is 0.5 mg/L (≈ 1.63 µM); in the assay on Cryptococcus neoformans, 1.9 mg/L (≈ 6.2 µM); with Sporothrix schenckii, 2 mg/L (≈ 6.53 µM); in assay [1], 1 mg/L (≈ 3.27 µM); in the assay on Aspergillus fumigatus, 2 mg/L (≈ 6.53 µM); against Candida parapsilosis it was 1 mg/L (≈ 3.27 µM).

Regarding `COC(=O)CC[C@@H](C)[C@H]1CC[C@H]2[C@@H]3[C@H](O)C[C@@H]4C[C@](O)(CNCCN)CC[C@]4(C)[C@H]3C[C@H](O)[C@]12C`, the IC50 result in the assay with Pseudomonas aeruginosa is “Not Active”; in the assay on Staphylococcus aureus (ATCC 25923, 24 h) it was 4.12 mg/L (≈ 8.33 µM); with Klebsiella pneumoniae (setting [5]), 4.68 mg/L (≈ 9.46 µM); in the assay on Candida albicans it was 24 mg/L (≈ 48.6 µM); in the assay on Cryptococcus neoformans, 14.6 mg/L (≈ 29.4 µM); in the assay with Sporothrix schenckii, 18.3 mg/L (≈ 37 µM). Further, the IC50 was determined as 6.25 mg/L (≈ 12.6 µM) in [1], 50 mg/L (≈ 101 µM) in the assay with Aspergillus fumigatus, 16.4 mg/L (≈ 33.2 µM) in the assay on Candida parapsilosis and 17.2 mg/L (≈ 34.8 µM) with Escherichia coli (setting [7]). In addition, the MIC turned out to be 50 mg/L (≈ 101 µM) against Pseudomonas aeruginosa (setting [2]); 6.25 mg/L (≈ 12.6 µM) in the assay with Staphylococcus aureus (ATCC 25923, 24 h); 6.25 mg/L (≈ 12.6 µM) against Klebsiella pneumoniae (setting [4]); 25 mg/L (≈ 50.5 µM) with Candida albicans; 25 mg/L (≈ 50.5 µM) against Cryptococcus neoformans; 25 mg/L (≈ 50.5 µM) against Sporothrix schenckii. In addition, the MIC in assay [1] came to 6.25 mg/L (≈ 12.6 µM); in the assay with Aspergillus fumigatus it was 50 mg/L (≈ 101 µM); against Candida parapsilosis it was 25 mg/L (≈ 50.5 µM); against Escherichia coli (setting [6]), 25 mg/L (≈ 50.5 µM).

On to `COC(=O)CC[C@@H](C)[C@H]1CC[C@H]2[C@@H]3CC[C@@H]4C[C@](O)(CNCCN)CC[C@]4(C)[C@H]3C[C@H](O)[C@]12C`, for which the IC50 result is “Not Active” in the assay with Pseudomonas aeruginosa; 5.14 mg/L (≈ 10.7 µM) in the assay on Staphylococcus aureus (ATCC 25923, 24 h); 5.21 mg/L (≈ 10.9 µM) with Klebsiella pneumoniae (setting [5]); 25 mg/L (≈ 52.3 µM) in the assay on Candida albicans; 17.2 mg/L (≈ 36 µM) with Cryptococcus neoformans; 3.36 mg/L (≈ 7.02 µM) in the assay on Sporothrix schenckii. The concentration for half-maximal inhibition (IC50) in assay [1] was 6.25 mg/L (≈ 13.1 µM); in the assay with Aspergillus fumigatus, 8.14 mg/L (≈ 17 µM); in the assay on Candida parapsilosis it was 18.4 mg/L (≈ 38.4 µM); in the assay with Escherichia coli it was “Not Active”. Also, the MIC was 50 mg/L (≈ 104 µM) in the assay on Pseudomonas aeruginosa (setting [2]); 6.25 mg/L (≈ 13.1 µM) against Staphylococcus aureus (ATCC 25923, 24 h); 6.25 mg/L (≈ 13.1 µM) in the assay on Klebsiella pneumoniae (setting [4]); above 50 mg/L in the assay with Candida albicans; 25 mg/L (≈ 52.2 µM) in the assay with Cryptococcus neoformans; 12.5 mg/L (≈ 26.1 µM) in the assay on Sporothrix schenckii. Also, the minimum inhibitory concentration (MIC) came to 6.25 mg/L (≈ 13.1 µM) in assay [1], 12.5 mg/L (≈ 26.1 µM) with Aspergillus fumigatus, 25 mg/L (≈ 52.2 µM) in the assay on Candida parapsilosis and 50 mg/L (≈ 104 µM) in the assay on Escherichia coli (setting [6]).

Consider `COC(=O)CC[C@@H](C)[C@H]1CC[C@H]2[C@@H]3CC[C@@H]4C[C@](O)(CN=[N+]=[N-])CC[C@]4(C)[C@H]3C[C@H](O)[C@]12C`, for which the MIC was above 50 mg/L in the assay with Pseudomonas aeruginosa (setting [2]); above 50 mg/L against Staphylococcus aureus (ATCC 25923, 24 h); above 50 mg/L in the assay on Candida albicans; above 50 mg/L against Cryptococcus neoformans; above 50 mg/L in the assay with Sporothrix schenckii; above 50 mg/L in assay [1]. Further, the minimum inhibitory concentration (MIC) against Aspergillus fumigatus, in the assay on Candida parapsilosis and with Escherichia coli (setting [6]) was above 50 mg/L throughout.

On to `COC(=O)CC[C@@H](C)[C@H]1CC[C@H]2[C@@H]3[C@H](O)C[C@@H]4C[C@H](O)CC[C@]4(C)[C@H]3C[C@H](O)[C@]12C` [CHOLIC ACID, METHYL ESTER], for which the MIC is above 50 mg/L against Pseudomonas aeruginosa (setting [2]); above 50 mg/L against Staphylococcus aureus (ATCC 25923, 24 h); above 50 mg/L against Candida albicans; above 50 mg/L against Cryptococcus neoformans; above 50 mg/L in the assay with Sporothrix schenckii; above 50 mg/L in assay [1]. In addition, the MIC in the assay on Aspergillus fumigatus, against Candida parapsilosis and against Escherichia coli (setting [6]) was above 50 mg/L each time.

On to `COC(=O)CC[C@@H](C)[C@H]1CC[C@H]2[C@@H]3[C@H](O)C[C@@H]4C[C@](O)(CN=[N+]=[N-])CC[C@]4(C)[C@H]3C[C@H](O)[C@]12C`, for which the MIC with Pseudomonas aeruginosa (setting [2]) was above 50 mg/L; against Staphylococcus aureus (ATCC 25923, 24 h), above 50 mg/L; against Candida albicans, above 50 mg/L; against Cryptococcus neoformans, above 50 mg/L; against Sporothrix schenckii, above 50 mg/L; in assay [1], above 50 mg/L. Also, the MIC with Aspergillus fumigatus, against Candida parapsilosis and against Escherichia coli (setting [6]) was above 50 mg/L each time.

Take GENTAMICIN: the minimum inhibitory concentration (MIC) against Pseudomonas aeruginosa turned out to be 25 mg/L; against Staphylococcus aureus, 6.25 mg/L; against Klebsiella pneumoniae, 0.78 mg/L; in the assay on Escherichia coli, 0.18 mg/L.

For `COC(=O)CC[C@@H](C)[C@H]1CC[C@H]2[C@@H]3CC[C@@H]4C[C@H](O)CC[C@]4(C)[C@H]3C[C@H](O)[C@]12C` [METHYL DEOXYCHOLATE], the MIC against Pseudomonas aeruginosa (setting [2]) is above 50 mg/L; against Staphylococcus aureus (ATCC 25923, 24 h), above 50 mg/L; in the assay on Candida albicans, above 50 mg/L; against Cryptococcus neoformans it was above 50 mg/L; with Sporothrix schenckii it was above 50 mg/L; in [1], above 50 mg/L. For the same molecule, the MIC in the assay on Aspergillus fumigatus, against Candida parapsilosis and in the assay with Escherichia coli (setting [6]) was above 50 mg/L in each case.
